Data on four compounds can be found in patent publication US20040214897A1, “Uses for 2-amino-2-propane-1,3-diols” (priority 2001, published 2004).

The test system of assay [1] is peripheral blood lymphocytes (PBL). Conditions: background statement; cited from earlier work.
For assay [2], the system named is yeast strains JK9-3dα, MH272-1da and MH272-1da/α. Kind of assay: Yeast growth on media containing the compound, compared with medium without compound. The assay is classed as cell-based, Saccharomyces Cerevisie. The settings on record: for antifungal activity on Saccharomyces Cerevisie: general statement. On the procedure: The compound, e.g. FTY720, is dissolved in distilled water to be 10 mM, the resulting stock solution is kept at 4° C. and diluted to the appropriated concentrations with medium used for yeast culture. Standard laboratory yeast strain in this case derivatives of JK9-3d (a, alpha and diploid) are plated on to media containing the varying concentrations of the compound to be tested and their growth are compared to that in medium without the compound. Cultivation and maintenance of cells are carried out in YEPD medium (Difco) or synthetic medium (SD). The growth of both yeast strains JK9-3dα, MH272-1da and MH272-1da/α is inhibited by a compound of formula I, e.g. FTY720, at 30 μM in the YPED solid medium at 30° C. or in minimal medium at 19° C.

Assay [3] concerns prototrophic derivatives of JK9-3dα. Kind of assay: Growth sensitivity of prototrophic derivatives of JK9-3dα to FTY720. Format: cell-based, Saccharomyces Cerevisie. On the procedure:
(§1) The compound, e.g. FTY720, is dissolved in distilled water to be 10 mM, the resulting stock solution is kept at 4° C. and diluted to the appropriated concentrations with medium used for yeast culture. Standard laboratory yeast strain in this case derivatives of JK9-3d (a, alpha and diploid) are plated on to media containing the varying concentrations of the compound to be tested and their growth are compared to that in medium without the compound. Cultivation and maintenance of cells are carried out in YEPD medium (Difco) or synthetic medium (SD).
If so, yeast that are able to synthesize amino acids might have a growth advantage in the presence of FTY720 compared with isogenic auxotrophic yeast that require amino acid import from the medium to grow. Therefore, the influence of nutrient auxotrophies present in JK9-3dα (trp1 his4 leu2 ura3), which are used to identify target molecules of FTY720, on the sensitivity to this compound is tested. In contrast to the parental auxotrophic strain, fully prototrophic TRP1 HIS4 LEU2 URA3 derivative of JK9-3dα is resistant to 30 μM of FTY720. […] It therefore seems that the molecular targets and pathways other than that of 30 μM are involved in the effects of 100 μM of FTY720. Then, in order to identify which nutrient transport is inhibited by 30 μM of FTY720, prototrophic strain for each nutrient are constructed in JK9-3dα.

The test system of a further assay is Bul1-disrupted yeast. Kind of assay: Sensitivity of gene-disrupted yeast strains to FTY720. The assay is classed as cell-based, Saccharomyces Cerevisie. On the procedure: as §1
Only one genomic DNA fragment in pRS416 confers sensitivity to FTY720. This DNA contains 4 intact genes (NRC1, Bul1, RCE1, DSK2). […] Intact Bul1 gene in low-copy-number plasmid confers sensitvity to FTY720 in the resistant recessive mutants, implying that the mutation happens in Bul1 gene in the recessive mutant yeast.

The next assay has as its system JK9-3dα transformants. The assay is described as follows: FTY720 resistance of JK9-3dα transformants carrying plasmid-borne genes. Format: cell-based, Saccharomyces Cerevisie. The text has this: If the growth sensitivity of these yeast strains is due to inhibition of specific functional protein targets in the cells, such inhibition could be relieved by overexpressing such a function through introduction of multiple genetic copies of such function. Accordingly the FTY720 sensitive strain JK9-3dα has been transformed with yeast genomic DNA libraries cloned in high copy plasmid (2 μm) URA3 selectable using Yeast Transformation System (Clontech). FTY720-resistant transformants are selected on synthetic medium lacking uracil in the presence of 30 μM of FTY720. The total number of URA3+transformants is >20,000. The first selection Is performed at 19° C. because even the parent yeast strain JK9-3dα is resistant to FTY720 in synthetic medium at 30° C. After the first selection for resistance, FTY720-resistant growth phenotype of transformants is reconfirmed by restreaking individual colonies on to medium with the compound. Plasmid which conferred resistance to FTY720 are recovered according to standard methods, amplified in E. coli and reintroduced into JK9-3da for the confirmation of FTY720 resistance. The DNA fragments which conferred FTY720 resistance are isolated to determine sequence of both terminii of insert DNA and the DNA sequence is compared with Saccharomyces Genome Database. Then, the responsible single genes for the FTY720 resistance are further identified from the DNA fragments due to their common presence in different fragments and by using specific restriction enzymes to subclone them into yeast plasmid vector as shorter fragments (Genes Vap1, UBP5, UBP11 and Caj1 are identified by this method).
From each fragment or resistance plasmid, single responsible genes, which overcome the anti-fungal effects of this compound at the increased copy number, are identified by subcloning using restriction enzymes. One is amino acid transporter VAP1, the others are a putative deubiquitinating enzyme UBP11 and UBP5. The last one is CAJ1 (heat shock protein).
The glutamine transporter GNP1 gene (38) is PCR amplified out of this fragment derived from the FTY720 resistant mutant or parent wild-type genomic DNA, then cloned into the same plasmid vector pRS416.
JK9-3dα wild-type cells are transformed with the yeast genomic DNA library constructed from FTY720 resistant dominant mutant in the low-copy-number vector pRS416. FTY720-resistant transformants are selected in SD medium in the presence of 30 μM of FTY720 as mentioned above. Plasmid inserts are sequenced and gene is identified as GNP1.

In a further assay the test system is Rsp5 mutant yeast. The assay is described as follows: Sensitivity of Rsp5 mutant to FTY720. The assay is classed as cell-based, Saccharomyces Cerevisie. Conditions: 30 μM. On the procedure:
as §1
In order to clarify the role of the ubiquitin pathway in FTY720 action, the sensitivity of Rsp5 (Bul1 binding ubiquitin ligase) mutant to FTY720 is tested. Rsp5 mutant, in which Rsp5 expression level is reduced to less than 10% of wild-type due to the Ty1 transposed insertion in the promoter, is used in this study, since the complete disruption of Rsp5 gene is lethal. This Rsp5 mutant is resistant to 30 μM of FTY720 like Bul1 disrupted-yeast.

The test system of a further assay is yeast cells. Conditions: cited from earlier work.
A further assay concerns several yeast strains. Conditions: background statement; cited from earlier work.

As for `NC(CO)(CO)CCc1ccc(C(=O)CCCCc2ccccc2)cc1` [Compound Y, 2-amino-2-{2-[4-(1-oxo-5-phenylpentyl)phenyl]ethyl}propane-1,3-diol], the “peripheral blood lymphocytes (PBL) in vivo” value in assay [1] was “rapid and marked reduction”. Moreover, the “antifungal activity on Saccharomyces Cerevisie” value in assay [2] is recorded as “exhibits an antifungal activity”.
For `CCCCCCCCc1ccc(CCC(N)(CO)CO)cc1` [FTY720, 2-Amino-2-[2-(4-octylphenyl)ethyl]propane-1,3-diol], in assay [1], the “peripheral blood lymphocytes (PBL) in vivo” value was “rapid and marked reduction”. Besides, the “sensitivity of fully prototrophic TRP1 HIS4 LEU2 URA3 derivative of JK9-3dα” value in assay [3] (30 μM) was “resistant”. In assay [3] (30 μM, JK9-3dα background), the “sensitivity of single TRP1, HIS4, LEU2 or URA3 prototrophic strains” value is “Neither of each TRP1, HIS4, LEU2 or URA3 prototrophic strain is resistant”; the “sensitivity of strain with both TRP1 and LEU2” value was “sufficient to confer resistance”. Also, the “sensitivity of prototrophic yeast” value in assay [3] (100 μM) was “still sensitive”. Besides, the “growth of yeast strains JK9-3dα, MH272-1da and MH272-1da/α” value in assay [2] (30 μM, YPED solid medium at 30° C. or minimal medium at 19° C.) was “inhibited”. Moreover, the “antifungal activity on Saccharomyces Cerevisie” value in assay [2] was “exhibits an antifungal activity”. Further, the “sensitivity of parent yeast strain JK9-3dα” value in assay [2] (synthetic medium at 30° C.) is given as “resistant”. The “sensitivity of Bul1-disrupted yeast after introduction of Bul1 gene in low-copy-number plasmid pRS416” value in the assay on Bul1-disrupted yeast is given as “reverses the phenotype from resistance to sensitivity”. Moreover, the “sensitivity of Bul1-disrupted yeast” value with Bul1-disrupted yeast (30 μM) is “confers resistance”. Also, the “anti-fungal effect with wild type TAT2 gene in low-copy number-plasmid” value in the assay with JK9-3dα transformants was “overcomes the anti-fungal effects”. In addition, the “growth-inhibitory effect with VAP1, UBP11, UBP5 or CAJ1 in high-copy-number plasmid” value in the assay on JK9-3dα transformants (30 μM, JK9-3dα) is on record as “overcome the growth-inhibitory effects”. Further, the “anti-fungal effect with mutant-derived GNP1 in low-copy-number plasmid” value in the assay with JK9-3dα transformants (30 μM, JK9-3dα transformants, pRS416) is given as “confers resistance”. Also, the “growth inhibition with multiple copies of VAP1” value in the assay on JK9-3dα transformants (100 μM) was “fail to overcome the growth inhibition”. Further, the “anti-fungal effect with wild-type GNP1 gene in low-copy-number plasmid” value in the assay with JK9-3dα transformants (JK9-3dα transformants, pRS416) is “not inhibited”. Further, the “anti-fungal effect with VAP1 (and TAP2) in low-copy-number plasmid” value in the assay on JK9-3dα transformants (genes from mutant-derived and wild-type genomic DNA libraries) was “confer FTY720 resistance”. Further, in the assay with Rsp5 mutant yeast, the “sensitivity of Rsp5 mutant (Rsp5 expression less than 10% of wild-type)” value is given as “resistant”.
`CCCCCCCCCCCCCC[C@@H](O)[C@@H](O)[C@@H](N)CO` [PHS, phytoshingosine]: the tryptophan uptake entry in the assay on yeast cells is on record as “diminishes tryptophan uptake”.
For cyclosporin A [CsA], the “growth of several yeast strains” value in the assay on several yeast strains was “potently inhibit”.
